How the values were obtained:
Mus musculus [1] = experiment: Average change in weight is tested in mice at a dose of 4 mg/kg; format: functional; set-up: unit not given here
Mus musculus [2] = experiment: Average change in weight is tested in mice at a dose of 8 mg/kg; format: functional; set-up: unit not given here
Mus musculus [3] = experiment: Average change in weight is tested in mice at a dose of 2 mg/kg; format: functional; set-up: unit not given here
P388 [4] = experiment: Tested on P-388 Leukemia for median survival time treated to median survival time control when administered intraperitoneally at a dose of 8 mg/kg; format: functional, Mus musculus; conditions: route intraperitoneal
P388 [5] = experiment: Tested on P-388 Leukemia for median survival time treated to median survival time control when administered intraperitoneally at a dose of 4 mg/kg; format: functional, Mus musculus; conditions: route intraperitoneal
P388 [6] = experiment: Tested on P-388 Leukemia for median survival time treated to median survival time control when administered intraperitoneally at a dose of 1 mg/kg; format: functional, Mus musculus; conditions: route intraperitoneal
P388 [7] = experiment: Tested on P-388 Leukemia for median survival time treated to median survival time control when administered intraperitoneally at a dose of 2 mg/kg; format: functional, Mus musculus; conditions: route intraperitoneal
Mus musculus [8] = experiment: Average change in weight is tested in mice at a dose of 1 mg/kg; format: functional; set-up: unit not given here
P388 [9] = experiment: Tested on P-388 Leukemia for median survival time treated to median survival time control when administered intraperitoneally at a dose of 16 mg/kg; format: functional, Mus musculus; conditions: route intraperitoneal
Mus musculus [10] = experiment: Average change in weight is tested in mice at a dose of 16 mg/kg; format: functional; set-up: unit not given here
Mus musculus [11] = experiment: Average change in weight is tested in mice at a dose of 0.5 mg/kg; format: functional
P388 [12] = experiment: Tested on P-388 Leukemia for median survival time treated to median survival time control when administered intraperitoneally at a dose of 0.25 mg/kg; format: functional, Mus musculus; conditions: route intraperitoneal
Mus musculus [13] = experiment: Average change in weight is tested in mice at a dose of 0.25 mg/kg; format: functional
P388 [14] = experiment: Tested on P-388 Leukemia for median survival time treated to median survival time control when administered intraperitoneally at a dose of 0.5 mg/kg; format: functional, Mus musculus; conditions: route intraperitoneal
P388 [15] = experiment: Tested on P-388 Leukemia for median survival time treated to median survival time control when administered intraperitoneally at a dose of 8 mg/kg; Toxic; format: functional, organism-based; set-up: dose 8 mg/kg; conditions: Mus musculus
Mus musculus [16] = experiment: Average change in weight is tested in mice at a dose of 8 mg/kg; Toxic; format: functional, organism-based; set-up: dose 8 mg/kg
P388 [17] = experiment: Tested on P-388 Leukemia for median survival time treated to median survival time control when administered intraperitoneally at a dose of 4 mg/kg; Toxic; format: functional, organism-based; set-up: dose 4 mg/kg; conditions: Mus musculus
Mus musculus [18] = experiment: Average change in weight is tested in mice at a dose of 4 mg/kg; Toxic; format: functional, organism-based; set-up: dose 4 mg/kg

Row | SMILES | Activity (Mus musculus [1]) | Activity (Mus musculus [2]) | Activity (Mus musculus [3]) | T/C (P388 [4]) [%] | T/C (P388 [5]) [%] | T/C (P388 [6]) [%] | T/C (P388 [7]) [%] | Activity (Mus musculus [8]) | T/C (P388 [9]) [%] | Activity (Mus musculus [10]) | Activity (Mus musculus [11]) | T/C (P388 [12]) [%] | Activity (Mus musculus [13]) | T/C (P388 [14]) [%] | T/C (P388 [15]) | Activity (Mus musculus [16]) | T/C (P388 [17]) | Activity (Mus musculus [18])
1 | C/N=C(\C(O)C(C)O)C(OC)C1Cc2cc3cc(OC4CC(OC(C)=O)C(OC5CC(O)C(OC)C(C)O5)C(C)O4)cc(O)c3c(O)c2CC1OC1CC(OC2CC(OC3CC(C)(O)C(OC(=O)C(C)C)C(C)O3)C(O)C(C)O2)C(O)C(C)O1 (centres undefined) | 0.4 | -3.3 | -0.3 | 115 | 110 | 125 | 140 | 0.3 |  |  |  |  |  |  |  |  |  | 
2 | COC(C(=O)C1OC(C)(C)OC1C)C1Cc2cc3cc(OC4CC(OC(C)=O)C(OC5CC(O)C(OC)C(C)O5)C(C)O4)cc(O)c3c(O)c2C(=O)C1OC1CC(OC2CC(OC3CC(C)(O)C(OC(=O)C(C)C)C(C)O3)C(O)C(C)O2)C(O)C(C)O1 (centres undefined) | 0.3 | 0.8 | 0.6 | 156 | 139 |  | 117 |  | 167 | 1.3 |  |  |  |  |  |  |  | 
3 | COC1C(O)CC(OC2C(C)OC(Oc3cc(O)c4c(O)c5c(cc4c3)CC(C(OC)C(O)C(O)C(C)O)C(OC3CC(OC4CC(OC6CC(C)(O)C(OC(=O)C(C)C)C(C)O6)C(O)C(C)O4)C(O)C(C)O3)C5)CC2OC(C)=O)OC1C (centres undefined) | 3.7 | 3.5 | 5.3 | 106 | 100 |  | 100 |  | 139 | 0.5 |  |  |  |  |  |  |  | 
4 | CO/N=C(\C(O)C(C)O)C(OC)C1Cc2cc3cc(OC4CC(OC(C)=O)C(OC5CC(O)C(OC)C(C)O5)C(C)O4)cc(O)c3c(O)c2C(=O)C1OC1CC(OC2CC(OC3CC(C)(O)C(OC(=O)C(C)C)C(C)O3)C(O)C(C)O2)C(O)C(C)O1 (centres undefined) | 1.3 | 2.8 | 0.3 | 144 | 156 | 144 | 167 | 0.9 |  |  | 0.8 | 128 | 1.3 | 156 |  |  |  | 
5 | COc1cc(OC2CC(OC(C)=O)C(OC3CC(O)C(OC)C(C)O3)C(C)O2)cc2cc3c(c(OC)c12)C(=O)C(OC1CC(OC2CC(OC4CC(C)(O)C(OC(=O)C(C)C)C(C)O4)C(O)C(C)O2)C(O)C(C)O1)C(C(OC)C(=O)C(O)C(C)O)C3 (centres undefined) | 0.2 | 0.4 | 0.3 | 155 | 130 |  | 115 |  | 140 | 0.9 |  |  |  |  |  |  |  | 
6 | C/N=C(\C(O)C(C)O)C(OC)C1Cc2cc3cc(OC4CC(OC(C)=O)C(OC5CC(O)C(OC)C(C)O5)C(C)O4)cc(O)c3c(O)c2C(=O)C1OC1CC(OC2CC(OC3CC(C)(O)C(OC(=O)C(C)C)C(C)O3)C(O)C(C)O2)C(O)C(C)O1 (centres undefined) | 2.4 |  | 0.1 |  | 155 | 122 | 140 | 1.1 |  |  |  |  |  |  | Toxic | Toxic |  | 
7 | COC(/C(=N/Nc1ccccc1)C(O)C(C)O)C1Cc2cc3cc(OC4CC(OC(C)=O)C(OC5CC(O)C(OC)C(C)O5)C(C)O4)cc(O)c3c(O)c2C(=O)C1OC1CC(OC2CC(OC3CC(C)(O)C(OC(=O)C(C)C)C(C)O3)C(O)C(C)O2)C(O)C(C)O1 (centres undefined) | 0.5 | 0.5 | 0.2 | 140 | 120 |  | 120 |  | 140 | 1.3 |  |  |  |  |  |  |  | 
8 | COC(C(=O)C(O)C(C)O)C1Cc2cc3cc(OC4CC(OC(C)=O)C(OC5CC(O)C(OC)C(C)O5)C(C)O4)cc(O)c3c(O)c2C(=O)C1OC1CC(OC2CC(OC3CC(C)(O)C(OC(=O)C(C)C)C(C)O3)C(O)C(C)O2)C(O)C(C)O1 (centres undefined) | 0.4 |  | 0 |  | 157 | 130 | 146 | 0.3 |  |  | 1 |  |  | 114 |  |  |  | 
9 | COC(/C(=N/O)C(O)C(C)O)C1Cc2cc3cc(OC4CC(OC(C)=O)C(OC5CC(O)C(OC)C(C)O5)C(C)O4)cc(O)c3c(O)c2C(=O)C1OC1CC(OC2CC(OC3CC(C)(O)C(OC(=O)C(C)C)C(C)O3)C(O)C(C)O2)C(O)C(C)O1 (centres undefined) | 0.8 | 0.8 | 1.3 |  |  | 100 | 155 |  |  |  |  |  |  | 100 |  |  | Toxic | Toxic
10 | COC(C(=O)C(O)C(C)O)C1Cc2cc3cc(OC4CC(OC(C)=O)C(OC5CC(O)C(OC)C(C)O5)C(C)O4)c([N+](=O)[O-])c(O)c3c(O)c2C(=O)C1OC1CC(OC2CC(OC3CC(C)(O)C(OC(=O)C(C)C)C(C)O3)C(O)C(C)O2)C(O)C(C)O1 (centres undefined) | 2 | 3.5 | 2.8 | 100 | 110 |  | 100 |  | 100 | 2.4 |  |  |  |  |  |  |  | 
11 | COC(C(=O)C1OC2(CCCCC2)OC1C)C1Cc2cc3cc(OC4CC(OC(C)=O)C(OC5CC(O)C(OC)C(C)O5)C(C)O4)cc(O)c3c(O)c2C(=O)C1OC1CC(OC2CC(OC3CC(C)(O)C(OC(=O)C(C)C)C(C)O3)C(O)C(C)O2)C(O)C(C)O1 (centres undefined) | 0 | 0.2 | 1 | 139 | 100 |  | 111 |  | 100 | 0.7 |  |  |  |  |  |  |  | 
12 | COc1cc(OC2CC(OC(C)=O)C(OC3CC(O)C(OC)C(C)O3)C(C)O2)cc2cc3c(c(O)c12)C(=O)C(OC1CC(OC2CC(OC4CC(C)(O)C(OC(=O)C(C)C)C(C)O4)C(O)C(C)O2)C(O)C(C)O1)C(C(OC)C(=O)C(O)C(C)O)C3 (centres undefined) | 1.3 |  | 0.7 |  | 156 | 144 | 156 | 1.3 |  |  | 1.3 | 106 | 1.3 | 133 |  |  |  | 
13 | COC(C(=O)C(O)C(C)O)C1Cc2cc3cc(OC4CC(OC(C)=O)C(OC5CC(O)C(OC)C(C)O5)C(C)O4)cc(O)c3c(O)c2CC1OC1CC(OC2CC(OC3CC(C)(O)C(OC(=O)C(C)C)C(C)O3)C(O)C(C)O2)C(O)C(C)O1 (centres undefined) | 0.7 | 1 | 0.7 | 150 | 140 | 110 | 150 | 1.1 |  |  |  |  |  |  |  |  |  | 
14 | COC(/C(=N/NC(N)=O)C(O)C(C)O)C1Cc2cc3cc(OC4CC(OC(C)=O)C(OC5CC(O)C(OC)C(C)O5)C(C)O4)cc(O)c3c(O)c2C(=O)C1OC1CC(OC2CC(OC3CC(C)(O)C(OC(=O)C(C)C)C(C)O3)C(O)C(C)O2)C(O)C(C)O1 (centres undefined) | 1.3 | 1.2 | 1.8 | 110 | 110 |  | 85 |  | 105 | -2.3 |  |  |  |  |  |  |  | 
15 | COC1C(O)CC(OC2C(C)OC(Oc3cc(O)c4c(O)c5c(cc4c3)CC(C(OC)C(O)C(O)C(C)O)C(OC3CC(OC4CC(OC6CC(C)(O)C(OC(=O)C(C)C)C(C)O6)C(O)C(C)O4)C(O)C(C)O3)C5=O)CC2OC(C)=O)OC1C (centres undefined) | 0.2 | 0.2 | 1.1 | 140 | 125 |  | 90 |  | 130 | 0.9 |  |  |  |  |  |  |  | 
16 | COC(C(=O)C(O)C(C)O)C1Cc2cc3cc(OC4CC(OC(C)=O)C(OC5CC(O)C(OC)C(C)O5)C(C)O4)c(Br)c(O)c3c(O)c2C(=O)C1OC1CC(OC2CC(OC3CC(C)(O)C(OC(=O)C(C)C)C(C)O3)C(O)C(C)O2)C(O)C(C)O1 (centres undefined) | 1.2 | 0.1 | 0.3 | 150 | 120 |  | 110 |  | 130 | 0.1 |  |  |  |  |  |  |  | 
